According to US20030162834A1, “Natural physiologically active material effective on fish diseases and fish food containing the material” (priority 1998, published 2003):

Tests used:
Edwardsiella tarda = assay: Trial 11: turbidimetric antibacterial assay; format: cell-based; conditions: 500 ppm in BHI liquid culture medium, 13 hours, 23 degrees centigrade
Experimental: (§1) The turbidimetric analysis was employed. Fatty acids of C2, C4, C6-C10 were each dissolved in 2 ml of BHI liquid culture medium at 500 ppm concentration. A number 1×10^5 of typical bacteria (Vibrio anguillarum, Edwardsiella tarda and Enterococcus seriolicida) causing the fish bacterial diseases were inoculated in each adjusted culture medium, followed by cultivation for 13 hours at 23 degrees centigrade. After the cultivation, turbidity of the culture medium was measured at 600 nm to determine the amount of multiplied bacteria. The trial was conducted two times. Results are shown in FIG. 19 (Vibrio anguillarum), FIG. 20 (Edwardsiella tarda), and FIG. 21 (Enterococcus seriolicida).

Enterococcus seriolicida = assay: Trial 11: turbidimetric antibacterial assay; format: cell-based; conditions: 500 ppm in BHI liquid culture medium, 13 hours, 23 degrees centigrade
Experimental: as §1

Vibrio anguillarum = assay: Trial 11: turbidimetric antibacterial assay; format: cell-based; conditions: 500 ppm in BHI liquid culture medium, 13 hours, 23 degrees centigrade
Experimental: as §1

[1] = test system: parasites (Heterobothrium okamotoi, Cryptocaryon irritans); assay: Trial 1: overall statements on efficacy of fatty acids against parasites; format: cell-based; conditions: Trial 1 summary; C12 at a low concentration, not the same condition
Experimental: Fatty acids having carbon number C2, C4 and C6-C10 were each dissolved in seawater at 1 mM concentration, and oncomiracidia of Heterobothrium okamotoi and larvae attaching to the gill were immersed in the seawater solutions. After 2 hours from the start of immersion, the efficacy of the fatty acids was investigated by counting the number of dead oncomiracidia and the number of larvae dropping down from the gill. More than 30 individuals of parasites were transferred to each group.
For Cryptocaryon irritans, fatty acids having carbon number C2, C4 and C6-C10 were each dissolved in seawater at 0.5 mM concentration, and theronts of Cryptocaryon irritans were immersed in the seawater solutions. After 1 hour from the start of immersion, the efficacy of the fatty acids was investigated by counting the number of dead theronts. More than 200 individuals of parasites were transferred to each group.
For any of the groups, the trial was made under condition of 20 degrees centigrade.

fish bacteria = assay: Trial 11: overall statement on C12 against fish bacteria; format: cell-based; conditions: low concentration, not the same condition as 500 ppm
Experimental: as §1, with “Fatty acids of C2, C4, C6-C10 were each dissolved in 2 ml of BHI liquid culture medium at 500 ppm concentration.” left out

Solubility = format: physicochemical
[2] = test system: Vibrio sp. infection and gliding bacterium infection; assay: Trial 12: bleeding trial on spotted plaice with occurred bacterial disease; format: in vivo
Excerpt: Spotted plaice weighing approximately 60 g in average was employed in this trial. Each 270 pieces of spotted plaice were put in off-shore net pens of 4×4×2.5 m, and bled for 100 days. […] The number of dead fish and the fish situations were observed. The fish were fed twice per day, i.e., in the morning and evening. The water temperature during the trial period was in the range of 14-17 degrees centigrade.

Heterobothrium okamotoi = conditions: drug bath about one hour, about 800 ppm formalin; cited from earlier work
Cryptocaryon irritans [3] = assay: Trial 8: octanoic acid versus its monoglyceride and triglyceride, oral, red sea bream; format: in vivo; conditions: diet amount equal to 17.5 mM octanoic acid residues (2.5 g acid, 3.8 g monoglyceride, 2.7 g triglyceride per kg)
Excerpt: Fish tested: Red sea bream weighing approximately 15.8 g in average.
Trial groups: Four groups, i.e., an octanoic-acid added group in which fish were fed diets added with octanoic acid, a monoglyceride added group in which fish were fed diets added with monoglyceride of octanoic acid, a triglyceride added group in which fish were fed diets added with triglyceride of octanoic acid, and a control group in which fish were fed diets added with neither octanoic acid nor glycerides. The feeding rate was 3% of fish weight/day for each group.
Trial diets: The diets added with octanoic acid were prepared by spraying 2.5 g (17.5 mM with respect to the diet weight) of octanoic acid to 1 kg of commercially available pellets for red sea bream. […]. Specifically, the diets added with monoglyceride and triglyceride were prepared respectively by spraying 3.8 g of monoglyceride and 2.7 g of triglyceride to 1 kg of the commercially available pellets for red sea bream. The control group fish were fed the commercially available pellets for red sea bream.
Challenge trial: Each 10 pieces of fish from among a shoal of fish, in which no diseases such as Cryptocaryon irritans infection were found, were put in a 100-liter water tank, and were fed the respective trial diets. After 5 days, approximately 2000 individuals of theronts of Cryptocaryon irritans were put into each water tank to infect the fish while water flow was stopped for 1 hour. Then, bleeding was continued for 31 days while feeding the respective trial diets. During the trial period, the water temperature was 24+−1 degrees centigrade and the water was exchanged at 20 cycles/day.
Evaluation was made by sampling 5 pieces of fish from each group after 18 and 31 days from the start of the challenge, and comparing the number of the parasites attaching to the gill of each fish.

Cryptocaryon irritans [4] = assay: In vitro assay of glycerides of octanoic acid against Cryptocaryon irritans; format: cell-based
[5] = diets containing 0.5% decanoic acid fed from the 64-th day

CCCCCCCCC(=O)O [C9, pelargonic acid]
antibacterial activity (turbidity at 600 nm) (Edwardsiella tarda): showed an antibacterial activity | antibacterial activity (turbidity at 600 nm) (Enterococcus seriolicida): showed an antibacterial activity | antibacterial activity (turbidity at 600 nm) (Vibrio anguillarum): showed an antibacterial activity

CCCCCCCCCCCC(=O)O [C12, lauric acid]
efficacy against parasites [1]: a similar activity was found even at a low concentration | antibacterial activity (fish bacteria): a similar activity was found even at a low concentration | solubility in seawater (Solubility; Trial 1 conditions (1 mM / 0.5 mM)): so low in solubility that the trial could not be made under the same condition | solubility in BHI liquid culture medium (Solubility; Trial 11 conditions (500 ppm)): so low in solubility that the trial could not be made under the same condition

CN(C)[C@@H]1C(O)=C(C(N)=O)C(=O)[C@@]2(O)C(O)=C3C(=O)c4c(O)cccc4[C@@](C)(O)[C@H]3[C@H](O)[C@@H]12 [OTC, exytetracycline, reference compound]
number of dead fish after application ([2]; OTC in diet 6 days (22-th to 27-th day), 0.5 g of 10% OTC/kg of fish weight): reduced | complete remedy of the Vibrio sp. infection ([2]; OTC in diet 6 days, 0.5 g of 10% OTC/kg of fish weight): not confirmed

CCCCCCCCCC(=O)O [decanoic acid]
antibacterial activity (turbidity at 600 nm) (Edwardsiella tarda): showed an antibacterial activity | antibacterial activity (turbidity at 600 nm) (Enterococcus seriolicida): showed an antibacterial activity | antibacterial activity (turbidity at 600 nm) (Vibrio anguillarum): showed an antibacterial activity | dead fish after the 72-th day from the start of the trial [2, 5]: no dead fish were found | fish suffering abrasion and bleeding due to the infections [2, 5]: not found | number of dead fish after feeding [2, 5]: apparently reduced

C=O [formalin]
effect on adult parasites (Heterobothrium okamotoi): cannot destroy adult parasites at all | larvae destroyed (Heterobothrium okamotoi): ≤ 80%

CCCCCCCC(=O)OCC(O)CO (stereo not drawn) [monoglyceride of octanoic acid]
number of parasites attaching to the gill after 18 and 31 days, versus control (Cryptocaryon irritans [3]): apparently fewer | antibacterial activity against Cryptocaryon irritans (Cryptocaryon irritans [4]): an antibacterial activity though at a lower level than octanoic acid

CCCCCCCC(=O)OCC(COC(=O)CCCCCCC)OC(=O)CCCCCCC [triglyceride of octanoic acid]
number of parasites attaching to the gill after 18 and 31 days, versus control (Cryptocaryon irritans [3]): apparently fewer | antibacterial activity against Cryptocaryon irritans (Cryptocaryon irritans [4]): no antibacterial activity
